# Legend:
# Runx3 [1] = assay: Runx3 immunoblot after histone deacetylase inhibitor treatment; assay type: cell-based, murine; settings: KPD carcinoma cells; TSA at 0, 10, or 40 μM; 48 hours of treatment
# Description: To directly test of this potential involvement of Hdac5 in the post-translational control mechanism of Runx3, a histone deacetylase inhibitor was used to determine whether Runx3 levels increased when deacetylation of Runx3 by Hdac5 was minimized or abrogated (i.e., whether the acetylation level of Runx3 does in fact affect physiologic degradation). Briefly, cells (4×10^5) were plated in 60 cc dishes and trichostatin A (TSA) (Tocris Biosciences, MO, USA), an Hdac5 inhibitor, was added at 0, 10, or 40 μM at 24 hours. Total RNA or whole cell lysates were prepared as described herein after 48 hours of treatment, and the latter resolved on 4-12% Bis-Tris gels, transferred to PVDF and probed with Runx3 antibody.
# CFPAC-1 cells = assay: Scratch wound migration assay, CFPAC-1; assay type: cell-based, human; settings: CFPAC1 cells
# Description: (§1) In addition to examining EMT, carcinoma cells were examined for their ability to migrate. For migration assays, cells were first incubated in the presence or absence of TGFβ (5 ng/ml) for 60 hours to achieve growth arrest (in order to separate out effects of proliferation rather than migration; see Izeradjene et al., 2007), then serum starved for 8 hours. Confluent cultures were scratched with a 20 μl pipette tip to generate a wound in three horizontal stripes per well; each experimental condition was performed in triplicate wells. All experiments were conducted in triplicate at least 3 independent times on at least 2 different cell lines from each genetic background. A minimum of six points across each wound were assessed independently by two investigators at the indicated time intervals for the presence of cells within the expanse. Representative photographs were taken from a minimum of 6-8 separate high power fields. For all assays, media was replaced every 24 hours with or without TGFβ and photographed every 24 hours.
# (§2) As an initial analysis, the human pancreas cancer cell lines were tested in the scratch wound migration assay described herein. The basal levels of RUNX3 in these human PDA cell lines correlated with their migratory potential, as MiaPaCa-2 cells migrated far less well than CFPAC-1 and Panc-1 cells (FIG. 9B). […]
# Panc-1 cells [2] = assay: Scratch wound migration assay, Panc-1; assay type: cell-based, human
# Description: as §1, §2
# MiaPaCa-2 cells = assay: Scratch wound migration assay, MiaPaCa-2; assay type: cell-based, human; settings: TGFβ
# Description: as §1, §2
# [3] = tested on: KP primary carcinoma cells; assay: Scratch wound migration assay, KP; assay type: cell-based, murine
# Description: as §1, with “For all assays, media was replaced every 24 hours with or without TGFβ and photographed every 24 hours.” left out
# (§3) Dpc4 expression was knocked down using a short hairpin RNA (shRNA) sequence (GAUUAACACUGCAGAGUAA, SEQ ID NO.: 19) targeting murine DPC4 procured in a pGIPZ vector (Open Biosystems). […] DPC4 transcript levels in murine cell lines were analyzed by qRT-PCR using the Taq-man assay per the manufacturer's recommendations (Applied Biosystems, CA, USA) with GAPHD as an internal control.
# [4] = tested on: KPD primary carcinoma cells; assay: Scratch wound migration assay, KPD; assay type: cell-based, murine
# Description: as §1, with “For all assays, media was replaced every 24 hours with or without TGFβ and photographed every 24 hours.” left out
# as §3
# KP PDA cells = assay: EMT immunofluorescence (actin stress fibers, E-cadherin), KP; assay type: cell-based, murine
# KPD PDA cells = assay: EMT immunofluorescence (actin stress fibers, E-cadherin), KPD; assay type: cell-based, murine
# Description: First, KPD pancreas cancer cells were probed by immunofluorescence for their ability to undergo epithelial-to-mesenchymal transition (EMT), a program of morphological and molecular changes implicated in the metastatic phenotype. Briefly, cells were grown on glass cover slips and treated for 72 hours in the presence or absence of TGFβ (5 ng/ml); media was replaced every 24 hours. For E-cadherin immunofluorescence, cells were fixed in ice cold methanol:acetone (1:1) for 15 minutes. For F-actin IF, cells were fixed in 4% paraformaldehyde for 30 minutes at RT followed by brief rinse in 0.15M glycine to quench the PFA. After fixation, the cells were washed with PBS and blocked for 1 hour at RT with 2% fatty acid-free BSA/2.5% goat serum. Cells were incubated with E-cadherin primary antibody (1:200, BD Biosciences) or Alexafluor488 F-actin (1:1000) for 1 hour at RT. Alexafluor 488 secondary antibody was used to visualize E-cadherin antibody. Cells were counterstained with DAPI and the slips mounted with Prolong Gold Anti-fade (Invitrogen, CA, USA). Images were acquired using a Nikon Eclipse 80i microscope with NIS Elements Software (Nikon, v3.1).
# KPD cells [5] = assay: Cell proliferation assay; assay type: cell-based, murine; settings: TGFβ 5 ng/ml
# Description: For immunocytochemistry, the primary antibody used was Ki-67 (1:25, Dako, Calif., USA), which is a marker of proliferating cells. For cell proliferation assays, equal numbers of murine or human cells (30,000) were plated in triplicate for each cell line and incubated in the presence or absence of TGFβ (5 ng/ml, R&D Systems, USA). Cells were counted manually at 24 hour intervals. Data points represent the mean±SEM of triplicate determinations from at least 3 independent experiments. All experiments were conducted in triplicate at least 3 independent times on at least 2 different cell lines from each genetic background. Representative photographs were taken from a minimum of 6-8 separate high power fields. For all assays, media was replaced every 24 hours with or without TGFβ and photographed every 24 hours.
# [6] = tested on: Runx3 complexes with Smad2 and Smad4; assay: Smad2 immunoprecipitation of Runx3 complexes, KP; assay type: cell-based, murine; settings: KP cells, incubated with TGFβ prior to lysis
# Description: (§4) To examine whether the transcriptional activity of Runx3 was exercised in complex with Smad4/Dpc4, immunoprecipitation assays were performed. Briefly, cells were lysed by sonication in 20 mM HEPES (pH 7.5), 400 mM KCl, 5% Glycerol, 5 mM EDTA, 0.4% Np40, supplemented with 1×protease inhibitor (Sigma, MO, USA), phosphotase inhibitor cocktails I and II (Sigma, MO, USA), and the lysates cleared by centrifugation. Extracts were diluted to 20 mM HEPES (pH 7.8), 50 mM KCl, 5% Glycerol, 2.5 mM MgCl2, 0.05% NP40 and incubated with Smad2 antibody (2.5 μg/ml from AbCam, Cambridge Mass., USA) and Protein A-Sepharose beads for 4 hours at 4° C. Beads were washed and co-purified proteins liberated in boiling Laemmli buffer and analyzed by immunoblot with the appropriate primary antibody. ExactaCruz secondary antibodies (Santa Cruz biotechnology) were used to reduce background from IgG.
# [7] = tested on: Runx3 complexes with Smad2 and Smad4; assay: Smad2 immunoprecipitation of Runx3 complexes, KPD; assay type: cell-based, murine; settings: KPD cells, incubated with TGFβ prior to lysis
# Description: as §4
# KP cells = assay: Tail vein pulmonary metastasis assay in nude mice, KP cells; assay type: in vivo, nude mice (Athymic NCr-nu/nu); settings: KP cells with Dpc4 extinguished, tail vein injection
# Description: (§5) Purified KP and KPD carcinoma cells were also injected into the circulation of immunocompromised mice and scored for their ability to form pulmonary metastases. Briefly, murine cells were studied in a classical tail vein metastasis assay in nude mice (Athymic NCr-nu/nu). At least 3 animals were injected (1×10^5 or 1×10^6 cells/injection, depending on the experiment) for each independently derived cell line and all experiments were performed at least twice. […] Metastatic disease burdens were assessed as a ratio of cross-sectional area occupied by tumor to whole lung area using ImageJ software (NIH).
# as §3, with “Biosystems). A control sequence (scrambled, scr) was used as a negative control. High-titer lentivirus was made and PDA cells were infected and selected for stable expression of the DPC4-specific shRNA. Knockdown was confirmed by qRT-PCR.” for “Biosystems).”
# KPD cells [8] = assay: Tail vein pulmonary metastasis assay in nude mice, KPD cells; assay type: in vivo, nude mice (Athymic NCr-nu/nu); settings: KPD cells with complete knockdown of Dpc4, tail vein injection
# Description: as §5
# as §3, with “Biosystems). A control sequence (scrambled, scr) was used as a negative control. High-titer lentivirus was made and PDA cells were infected and selected for stable expression of the DPC4-specific shRNA. Knockdown was confirmed by qRT-PCR.” for “Biosystems).”
# Runx3 [9] = assay: Runx3 immunoblot after targeted depletion of Smad4; assay type: cell-based, murine; settings: KPD cells; converse of the increase seen with Smad4 over-expression
# Description: For immunoblot analysis, whole cell lysates were prepared using 1×RIPA buffer (Millipore, CA, USA) supplemented with 1×protease inhibitor (Sigma, MO, USA) and phosphotase inhibitor cocktails I and II (Sigma, MO, USA). For immunoblot experiments, 20 μg (murine) or 30 μg (human) whole cell protein lysate were separated on a 4-12% Bis-tris gel system (Invitrogen, CA, USA) and transferred to PVDF membrane (Millipore, CA, USA). Primary antibodies used were Dpc4, p16, p19, Actin (all at 1:2000, Santa Cruz, Calif., USA), and p53 (1:1000, Vector Lab, CA, USA).
# Dpc4 expression was knocked down using a short hairpin RNA (shRNA) sequence (GAUUAACACUGCAGAGUAA, SEQ ID NO.: 19) targeting murine DPC4 procured in a pGIPZ vector (Open Biosystems). A control sequence (scrambled, scr) was used as a negative control. High-titer lentivirus was made and PDA cells were infected and selected for stable expression of the DPC4-specific shRNA. Knockdown was confirmed by qRT-PCR. Briefly, total RNA was reverse transcribed using the high capacity cDNA synthesis kit (Applied Biosystems, CA, USA) and qRT-PCR performed using SYBER green supermix (Bio-Rad, VA, USA) on a CFX-96 thermal cycler. […] DPC4 transcript levels in murine cell lines were analyzed by qRT-PCR using the Taq-man assay per the manufacturer's recommendations (Applied Biosystems, CA, USA) with GAPHD as an internal control.
# Panc-1 cells [10] = assay: Pulmonary metastasis assay in NOD/SCID mice; assay type: in vivo
# Description: as §5
# (§6) Human RUNX3 was cloned into pBABE hygromycin vector and stable RUNX3 expressing HEK293T cells were prepared using a similar protocol to that used to make the murine version. Also, shRNA sequences targeting human RUNX3 to knock down expression were procured in pGIPZ vectors (Open Biosystems). High-titer lentivirus was made and PDA cells were infected and selected for stable expression of the […] shRNA (SEQ ID NO.: 20, CGGCAGAAGCUGGAGGACC). Knockdown was confirmed by qRT-PCR.
# To determine whether overexpression of RUNX3 in human PDA cells also promotes metastasis, pulmonary metastasis assays were performed using NOD/SCID mice.
# COL6A1 = COL6A1 expression by qRT-PCR; assay type: cell-based, human; settings: shRUNX3 transfected Panc-1 cells vs scrambled
# Description: as §6
# Transcript levels in Runx3-overexpressing carcinoma cells were determined using qRT-PCR as described herein. The Spp1 mouse forward and reverse primers used were SEQ ID NO.:5 ([…]) and SEQ ID NO.:6 ([…]), respectively; the Col6A1 mouse forward and reverse primers were SEQ ID NO.:7 (CTGCTGCTACAAGCCTGCT) and SEQ ID NO.:8 (CTGCTGCTACAAGCCTGCT), respectively; and the COL6A1 human forward and reverse primers were SEQ ID NO.:9 ([…]) and SEQ ID NO.:10 ([…]), respectively.
molecule,measurement,setting,value
"CC(/C=C/C(=O)NO)=C\[C@@H](C)C(=O)c1ccc(N(C)C)cc1 [TSA, trichostatin A]",levels of Runx3 (immunoblot),Runx3 [1],raise levels of Runx3 to approximately those found in KP cells
TGFβ,migration,CFPAC-1 cells; TGFβ,promoted or left unaffected
same,migration,Panc-1 cells [2]; TGFβ,promoted or left unaffected
same,migration,MiaPaCa-2 cells,modestly inhibited the migration
same,migration,[3]; TGFβ 5 ng/ml,stimulated
same,migration,[4]; TGFβ 5 ng/ml,did not respond in kind
same,EMT,"KP PDA cells; TGFβ 5 ng/ml, 72 hours",readily underwent TGFβ-induced EMT
same,"EMT (actin stress fibers, surface E-cadherin)","KPD PDA cells; KPD PDA cells, TGFβ 5 ng/ml, 72 hours",EMT is essentially intact
same,growth arrest (proliferation),KPD cells [5],only partially growth-arrested
same,Runx3/Smad2/Smad4 complex formation,[6],favor complex formation
same,Runx3/Smad2/Smad4 complex formation,[7],inhibit it
"shDpc4: short hairpin RNA (GAUUAACACUGCAGAGUAA, SEQ ID NO.: 19) targeting murine DPC4 in a pGIPZ vector",migration,[3]; Dpc4 depleted by shRNA,migration increased slightly
same,basal migratory behavior,[4]; complete ablation of Dpc4 expression by shRNA,increased their basal migratory behavior modestly
same,metastatic potential,KP cells,did not diminish their already considerable metastatic potential
same,metastatic potential,KPD cells [8],enhanced their metastatic potential
same,Runx3 levels (immunoblot),Runx3 [9],had the converse effect
same,EMT in response to TGFβ,KP PDA cells; late ablation of Dpc4 by shRNA,did not completely prevent EMT
same,EMT in response to TGFβ,"KPD PDA cells; KPD carcinoma cells, complete loss of Dpc4 expression by shRNA",some morphological features of EMT in response to TGFβ also persisted
"shRUNX3: shRNA targeting human RUNX3 (SEQ ID NO.: 20, CGGCAGAAGCUGGAGGACC) in pGIPZ vector, delivered by lentivirus",migration,CFPAC-1 cells; stable RUNX3-specific shRNA,inhibited their migration
same,migration,Panc-1 cells [2]; stable RUNX3-specific shRNA,inhibited their migration
same,liver weights,"Panc-1 cells [10]; NOD/SCID mice injected with RUNX3 knockdown Panc-1 cells, n=3",0.53 ± 0.06 g
same,ability to seed and support secondary metastases to the liver,Panc-1 cells [10]; RUNX3-depleted Panc-1 cells in NOD/SCID mice,considerably decreased
same,number of lung metastases,Panc-1 cells [10]; RUNX3-knockdown vs control Panc-1 cells in NOD/SCID mice,comparable number of lung metastases
same,COL6A1 transcript levels,COL6A1,reduces COL6A1 transcript levels

# Reference: patent US9845471B2, “Compositions and methods for treating pancreatic cancer” (Fred Hutchinson Cancer Research Center, priority 2013, dated 2017)
